According to patent US20200405868A1, “GEL-FORMING POLYPEPTIDES” (priority 2018, published 2020):
Where a SMILES comes first, the peptide text is derived from it. Bridges are numbered along the chain shown (N, C = ends). [ ]: non-standard residue; d: D form. The star is where a group is joined. Palmitoyl = CCCCCCCCCCCCCCCC(=O)*

Experiments:
[1] = Compound gel-forming ability in water (visual inspection, tube tapping assay, tilted tube assay); type: physicochemical; conditions: for gel formation at 11% w/w: 11% w/w in water; for gel formation at 20% w/w: 20% w/w in water; for gel formation in aqueous solution, 6% / propensity to form gels, chimeric or mutated polypeptides, 6%: 6% w/w;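 as to all read-outs here: peptides mixed with de-ionized water at about 22-25 °C, judged after 20 min by eye plus tube tapping (10 taps, moves counted) and 90° tilt mobility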
PTH receptor 1 (PTHR1) = molecular target: T1, PTH receptor 1 (PTHR1) (Homo sapiens, UniProt Q03431); experiment: PTHR1 cAMP assay (Discoverx), agonistic; type: cell-based
T1 sequence (Q03431 27-593): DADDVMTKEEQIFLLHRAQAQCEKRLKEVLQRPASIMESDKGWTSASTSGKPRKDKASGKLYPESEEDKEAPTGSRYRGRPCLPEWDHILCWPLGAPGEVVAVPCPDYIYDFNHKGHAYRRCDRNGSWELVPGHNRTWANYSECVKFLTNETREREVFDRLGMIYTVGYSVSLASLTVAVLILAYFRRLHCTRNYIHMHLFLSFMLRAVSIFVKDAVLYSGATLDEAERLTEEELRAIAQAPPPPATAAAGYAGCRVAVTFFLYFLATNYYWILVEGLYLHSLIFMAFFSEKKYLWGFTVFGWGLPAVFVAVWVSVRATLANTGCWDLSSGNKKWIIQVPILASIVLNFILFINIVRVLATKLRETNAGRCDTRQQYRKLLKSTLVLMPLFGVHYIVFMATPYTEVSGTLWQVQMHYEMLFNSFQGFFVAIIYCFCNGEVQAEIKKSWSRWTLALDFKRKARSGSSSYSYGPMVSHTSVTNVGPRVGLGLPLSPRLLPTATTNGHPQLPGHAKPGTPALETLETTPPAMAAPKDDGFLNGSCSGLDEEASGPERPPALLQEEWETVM
Description: (§1) The agonistic activities toward MC1R, MC4R, CRHR2, PTHR1, and OPRK1 were assyed with an MC1R cAMP assay, an MC4R cAMP assay, a CRHR2 cAMP assay, a PTHR1 cAMP assay and an OPRK1 cAMP assay from Discoverx Inc. (Fremont, Calif.), respectively. The antagonistic activities toward bradykinin receptor 2 (BDKRB2) and GnRH receptor (GnRHR or LHRHR) were assayed with a BDKRB2 arrestin assay and a GnRHR calcium flux assay from Discoverx, respectively.
(§2) For the analysis of Gs-coupled cAMP production, cAMP Hunter cell lines were expanded from freezer stocks, and cells were seeded in a total volume of 20 μL into white walled, 384-well microplates and incubated at 37 C for the appropriate time prior to testing. The cAMP modulation was determined using the DiscoverX HitHunter cAMP XS+ assay. For agonistic activity determination, cells were incubated with sample to induce response. Media was aspirated from cells and replaced with 15 μL 2:1 HBSS/10 mM Hepes: cAMP XS+ Ab reagent. […] The compound activity was analyzed using a CBIS data analysis suite (ChemInnovation, CA). For Gs-coupled agonistic assays, percentage activity is calculated using the following formula: % Activity=100%×(mean RLU of test sample−mean RLU of vehicle control)/(mean RLU of MAX control−mean RLU of vehicle control).

[2] = molecular target: T2, bradykinin receptor 2 (BDKRB2) (Homo sapiens, UniProt P30411); experiment: BDKRB2 arrestin assay (Discoverx), antagonistic; type: cell-based
T2 sequence (P30411 1-391): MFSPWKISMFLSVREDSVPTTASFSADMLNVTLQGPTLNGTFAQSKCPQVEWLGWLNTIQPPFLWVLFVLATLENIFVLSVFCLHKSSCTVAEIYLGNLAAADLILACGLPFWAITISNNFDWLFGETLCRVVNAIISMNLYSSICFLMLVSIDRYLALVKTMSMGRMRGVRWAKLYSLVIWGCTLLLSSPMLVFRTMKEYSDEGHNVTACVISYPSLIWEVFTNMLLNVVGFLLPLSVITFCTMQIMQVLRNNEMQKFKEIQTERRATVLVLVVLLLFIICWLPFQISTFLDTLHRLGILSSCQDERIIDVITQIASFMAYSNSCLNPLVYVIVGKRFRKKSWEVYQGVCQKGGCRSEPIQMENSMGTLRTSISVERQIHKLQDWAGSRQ
Description: For the Arrestin assays, PathHunter cell lines (Discoverx Inc.) were expanded from freezer stocks, and seeded in a total volume of 20 μL into white walled, 384-well microplates and incubated at 37 C for the appropriate time prior to testing. […] For antagonistic activity determination, cells were pre-incubated with antagonist followed by agonist challenge at the EC80 concentration. Intermediate dilution of sample stocks was performed to generate 5× sample in assay buffer, and 5 μL of 5× sample was added to cells and incubated at 37° C. or room temperature for 30 minutes. Vehicle concentration was 1%. Then, 5 μL of 6×EC80 agonist in assay buffer was added to the cells and incubated at 37 C or room temperature for 90 or 180 minutes.
Assay signal was generated through a single addition of 12.5 or 15 μL (50% v/v) of PathHunter Detection reagent cocktail, followed by an one hour incubation at room temperature. The microplates were read following signal generation with a PerkinElmer Envision™ instrument for chemiluminescent signal detection. The compound activity was analyzed using a CBIS data analysis suite (ChemInnovation, CA). […] For antagonistic activity assays, percentage inhibition was calculated using the following formula: % Inhibition=100%×(1−(mean RLU of test sample−mean RLU of vehicle control)/(mean RLU of EC80 control−mean RLU of vehicle control)).

[3] = molecular target: melanocortin receptor 4 (MC4R) (Homo sapiens, UniProt P32245); experiment: MC4R cAMP assay (Discoverx), agonistic; type: cell-based
Description: as §1, §2

CRH receptor 2 (CRHR2) = molecular target: T3, CRH receptor 2 (CRHR2) (Homo sapiens, UniProt Q13324); experiment: CRHR2 cAMP assay (Discoverx), agonistic; type: cell-based
T3 sequence (Q13324 1-411): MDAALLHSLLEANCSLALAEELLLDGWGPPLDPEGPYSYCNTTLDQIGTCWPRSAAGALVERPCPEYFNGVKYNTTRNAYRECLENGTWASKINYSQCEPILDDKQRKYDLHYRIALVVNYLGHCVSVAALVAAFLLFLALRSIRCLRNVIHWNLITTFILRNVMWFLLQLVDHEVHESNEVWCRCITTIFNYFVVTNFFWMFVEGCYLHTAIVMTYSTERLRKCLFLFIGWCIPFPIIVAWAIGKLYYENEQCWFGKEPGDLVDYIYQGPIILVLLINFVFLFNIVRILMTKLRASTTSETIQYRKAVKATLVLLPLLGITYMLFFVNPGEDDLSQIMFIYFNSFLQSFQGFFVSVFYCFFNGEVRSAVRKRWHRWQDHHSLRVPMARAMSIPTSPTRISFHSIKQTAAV
Description: as §1
For the analysis of Gs-coupled cAMP production, cAMP Hunter cell lines were expanded from freezer stocks, and cells were seeded in a total volume of 20 μL into white walled, 384-well microplates and incubated at 37 C for the appropriate time prior to testing. The cAMP modulation was determined using the DiscoverX HitHunter cAMP XS+ assay. For agonistic activity determination, cells were incubated with sample to induce response. Media was aspirated from cells and replaced with 15 μL 2:1 HBSS/10 mM Hepes: cAMP XS+ Ab reagent. Intermediate dilution of sample stocks was performed to generate 4× sample in assay buffer, and 5 μL of 4× sample was added to cells and incubated at 37 C or room temperature for 30 or 60 minutes. Vehicle concentration was 1%. The compound activity was analyzed using a CBIS data analysis suite (ChemInnovation, CA). For Gs-coupled agonistic assays, percentage activity is calculated using the following formula: % Activity=100%×(mean RLU of test sample−mean RLU of vehicle control)/(mean RLU of MAX control−mean RLU of vehicle control).

melanocortin receptor 4 (MC4R), sequence (P32245 whole entry): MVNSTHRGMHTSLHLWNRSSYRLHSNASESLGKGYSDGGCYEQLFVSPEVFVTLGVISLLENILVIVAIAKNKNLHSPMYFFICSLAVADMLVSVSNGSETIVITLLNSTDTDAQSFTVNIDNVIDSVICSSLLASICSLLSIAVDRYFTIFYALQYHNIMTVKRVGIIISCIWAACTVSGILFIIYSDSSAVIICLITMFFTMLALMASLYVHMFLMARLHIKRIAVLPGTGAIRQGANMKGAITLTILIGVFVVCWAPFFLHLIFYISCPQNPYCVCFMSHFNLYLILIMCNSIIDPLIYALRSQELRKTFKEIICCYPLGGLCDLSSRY

| Compound | gel formation at 11% w/w [1] | gel formation at 20% w/w [1] | gel formation in aqueous solution, 20% ([1]; Table 3, 20% w/w) | propensity to form gels, chimeric or mutated polypeptides, 20% ([1]; Table 5, 20% w/w) | Max Activity % of positive control (PTH receptor 1 (PTHR1)) | gel formation in aqueous solution, 6% ([1]; Table 3) | gel formation in aqueous solution, 11% ([1]; Table 3, 11% w/w) | propensity to form gels, chimeric or mutated polypeptides, 6% ([1]; Table 5) | propensity to form gels, chimeric or mutated polypeptides, 11% ([1]; Table 5, 11% w/w) | Max Activity % of positive control [2] | other results |
| --- | --- | --- | --- | --- | --- | --- | --- | --- | --- | --- | --- |
| CCCCCCCCCCCCCCCC(=O)N[C@@H](Cc1c[nH]cn1)C(=O)N[C@@H](CO)C(=O)N[C@@H](Cc1ccc(O)cc1)C(=O)N[C@@H](CO)C(=O)N[C@@H](CCC(=O)O)C(=O)N[C@H](C(=O)N[C@@H](CCC(N)=O)C(=O)N[C@@H](CC(C)C)C(=O)N[C@@H](CCSC)C(=O)N[C@@H](Cc1c[nH]cn1)C(=O)N[C@@H](CC(N)=O)C(=O)N[C@@H](CC(C)C)C(=O)NCC(=O)N[C@@H](CCCCN)C(=O)N[C@@H](Cc1c[nH]cn1)C(=O)N[C@@H](CC(C)C)C(=O)N[C@@H](CC(N)=O)C(=O)N[C@@H](CO)C(=O)N[C@@H](CCSC)C(=O)N[C@@H](CCC(=O)O)C(=O)N[C@@H](CCCNC(=N)N)C(=O)N[C@H](C(=O)N[C@@H](CCC(=O)O)C(=O)N[C@@H](Cc1c[nH]c2ccccc12)C(=O)N[C@@H](CC(C)C)C(=O)N[C@@H](CCCNC(=N)N)C(=O)N[C@@H](CCCCN)C(=O)N[C@@H](CCCCN)C(=O)N[C@@H](CC(C)C)C(=O)N[C@@H](CCC(N)=O)C(=O)N[C@@H](CC(=O)O)C(=O)N[C@H](C(=O)N[C@@H](Cc1c[nH]cn1)C(=O)N[C@@H](CC(N)=O)C(=O)N[C@@H](Cc1ccccc1)C(=O)O)C(C)C)C(C)C)[C@@H](C)CC [SEQ ID NO:232] (Palmitoyl-HSYSEIQLMHNLGKHLNSMERVEWLRKKLQDVHNF-OH; C-terminus assumed) | liquid gel | semisolid gel | SS (SS for semisolid gel) | SS (An ability to form semisolid gel is represented by an SS) | 59 % of positive control | – | – | – | – | – | – |
| CCCCCCCCCCCCCCCC(=O)N[C@@H](Cc1c[nH]cn1)C(=O)N[C@@H](CO)C(=O)N[C@@H](Cc1ccc(O)cc1)C(=O)N[C@H](CCCNC(=N)N)C(=O)N[C@@H](CCCNC(=N)N)C(=O)N1CCC[C@H]1C(=O)N1C[C@H](O)C[C@H]1C(=O)NCC(=O)N[C@@H](Cc1cccs1)C(=O)N[C@@H](CO)C(=O)N1Cc2ccccc2C[C@@H]1C(=O)N1[C@H](C(=O)N[C@@H](CCCNC(=N)N)C(N)=O)C[C@@H]2CCCC[C@@H]21 [SEQ ID NO:234, Pal-HSY-(D-Arg)-Arg-Pro-Hyp-Gly-Thi-Ser-(D-Tic)-Oic-Arg-NH2] | – | semisolid gel | SS (SS for semisolid gel) | SS (An ability to form semisolid gel is represented by an SS) | – | AS/IS (AS/IS for aqueous solution or insoluble) | AS/IS (AS/IS for aqueous solution or insoluble) | AS/IS | AS/IS | 112 % of positive control | IC50 ([2]; bradykinin-stimulated): 53.3 nM |
| CCCCCCCCCCCCCCCC(=O)N[C@@H](Cc1c[nH]cn1)C(=O)N[C@@H](CO)C(=O)N[C@@H](Cc1ccc(O)cc1)C(=O)N[C@@H](CCCNC(=N)N)C(=O)N[C@H]1CSSC[C@@H](C(N)=O)NC(=O)[C@H](Cc2c[nH]c3ccccc23)NC(=O)[C@H](CCCNC(=N)N)NC(=O)[C@@H](Cc2ccccc2)NC(=O)[C@H](Cc2c[nH]cn2)NC(=O)[C@@H](C)NC1=O [SEQ ID NO:228, Pal-HSYRC-(D-Ala)-H-(D-Phe)-RWC-NH2] (Palmitoyl-HSYRC[dA]H[dF]RWC-NH2; disulfide 5-11 (inferred)) | – | – | – | – | – | – | – | – | – | – | Max Activity % of positive control [3]: 115 % of positive control |
| N=C(N)NCCC[C@@H](N)C(=O)N[C@@H](CCCNC(=N)N)C(=O)N1CCC[C@H]1C(=O)N1C[C@H](O)C[C@H]1C(=O)NCC(=O)N[C@@H](Cc1cccs1)C(=O)N[C@@H](CO)C(=O)N1Cc2ccccc2C[C@@H]1C(=O)N1[C@H](C(=O)N[C@@H](CCCNC(=N)N)C(=O)O)C[C@@H]2CCCC[C@@H]21 [SEQ ID NO:32, (D-Arg)-Arg-Pro-Hyp-Gly-Thi-Ser-(D-Tic)-Oic-Arg, reference compound] | does not form gel | does not form gel | AS/IS (AS/IS for aqueous solution or insoluble) | – | – | – | AS/IS (AS/IS for aqueous solution or insoluble) | – | – | 100 % of positive control | gel formation at 30% w/w ([1]; 30% w/w in water): does not form gel; Physical property at 11% w/w ([1]; Table 1, 11% w/w in aqueous solution, room temperature): AS/IS; gel formation in aqueous solution, 30% ([1]; Table 3, 30% w/w): AS/IS (AS/IS for aqueous solution or insoluble); propensity to form gels, wild-type counterparts, 11% ([1]; Table 5, 11% w/w): AS/IS; propensity to form gels, wild-type counterparts, 20% ([1]; Table 5, 20% w/w): AS/IS |
| PTH (1-34) [reference compound] | – | – | – | – | 101 % of positive control | – | – | – | – | – | – |
| CCCCCCCCCCCCCCCC(=O)N[C@@H](CCCCN)C(=O)N[C@@H](CO)C(=O)N[C@@H](Cc1ccc(O)cc1)C(=O)N[C@@H](CO)C(=O)N[C@@H](CC(C)C)C(=O)N[C@@H](CC(=O)O)C(=O)N[C@H](C(=O)N1CCC[C@H]1C(=O)N[C@H](C(=O)N[C@@H](CC(N)=O)C(=O)N[C@H](C(=O)N[C@@H](CCSC)C(=O)N[C@@H](CC(N)=O)C(=O)N[C@@H](CC(C)C)C(=O)N[C@@H](CC(C)C)C(=O)N[C@@H](Cc1ccccc1)C(=O)N[C@@H](CC(N)=O)C(=O)N[C@H](C(=O)N[C@@H](C)C(=O)N[C@@H](CCCCN)C(=O)N[C@@H](C)C(=O)N[C@@H](CCCCN)C(=O)N[C@@H](CC(N)=O)C(=O)N[C@@H](CC(C)C)C(=O)N[C@@H](CCCNC(=N)N)C(=O)N[C@@H](C)C(=O)N[C@@H](CCC(N)=O)C(=O)N[C@@H](C)C(=O)N[C@@H](C)C(=O)N[C@@H](C)C(=O)N[C@@H](CC(N)=O)C(=O)N[C@@H](C)C(=O)N[C@@H](Cc1c[nH]cn1)C(=O)N[C@@H](CC(C)C)C(=O)N[C@@H](CCSC)C(=O)N[C@@H](C)C(=O)N[C@@H](CCC(N)=O)C(=O)N[C@H](C(N)=O)[C@@H](C)CC)[C@@H](C)CC)[C@@H](C)CC)[C@@H](C)O)C(C)C [SEQ ID NO:231] (Palmitoyl-KSYSLDVPTNIMNLLFNIAKAKNLRAQAAANAHLMAQI-NH2) | – | – | – | – | – | SS (SS for semisolid gel) | SS (SS for semisolid gel) | SS (An ability to form semisolid gel is represented by an SS) | SS (An ability to form semisolid gel is represented by an SS) | – | EC50 (CRH receptor 2 (CRHR2)): 5.7 nM; Max Activity % of positive control (CRH receptor 2 (CRHR2)): 78 % of positive control |
